Assay results taken from ChEMBL document CHEMBL5360530, “Structure activity relationship (SAR) and anticancer activity of pyrrolidine derivatives: Recent developments and future prospects (A review)” (Eur J Med Chem, 2023).
pIC50: −log10 of the molar value.

Assays:
FaDu = experiment: Anticancer activity against human FaDu cells assessed as cell growth inhibition; format: functional, cell-based
[1] = Cytotoxicity against human Chang liver cells assessed as cell growth inhibition measured after 24 hrs by DAPI and propidium iodide staining based assay; format: toxicity
M-HeLa = experiment: Anticancer activity against human HelaM cells assessed as cell growth inhibition measured after 24 hrs by DAPI and propidium iodide staining based assay; format: functional
HepG2 = experiment: Anticancer activity against human HepG2 cells assessed as cell growth inhibition measured after 48 hrs by MTT assay; format: functional, cell-based; conditions: HepG2, 48 h
HCT-116 = experiment: Anticancer activity against human HCT-116 cells assessed as cell growth inhibition measured after 48 hrs by MTT assay; format: functional, cell-based; conditions: HCT-116, 48 h
MCF7 = experiment: Anticancer activity against human MCF7 cells assessed as cell growth inhibition measured after 48 hrs by MTT assay; format: functional, cell-based; conditions: MCF7, 48 h

| SMILES | pIC50 (FaDu) | IC50 at 24 h [1] [µM] | pIC50 (M-HeLa) | also measured |
| --- | --- | --- | --- | --- |
| O=C1Nc2ccc(OC(F)(F)F)cc2[C@@]12N[C@H](Cc1c[nH]c3ccccc13)[C@@H]([N+](=O)[O-])[C@@H]2c1ccccc1 | ≤ 4.52 | – | – | – |
| CCCCCCc1c(O)c2ccccc2oc1=O | – | > 100 | ≤ 4.83 | – |
| COc1ccc([C@H]2[C@H]([N+](=O)[O-])[C@@H](Cc3c[nH]cn3)N[C@]23C(=O)Nc2ccccc23)cc1 | ≤ 4.52 | – | – | – |
| COc1ccc([C@H]2[C@H]([N+](=O)[O-])[C@@H](Cc3c[nH]c4ccccc34)N[C@]23C(=O)Nc2ccccc23)cc1 | ≤ 4.52 | – | – | – |
| O=C1Nc2ccccc2[C@@]12N[C@H](Cc1c[nH]cn1)[C@@H]([N+](=O)[O-])[C@@H]2c1ccc(Br)cc1 | 4.40 | – | – | – |
| O=C(/C=C/c1ccc(F)cc1)[C@H]1[C@H](c2ccc(F)cc2)C2CSCN2C12C(=O)Nc1c(Br)cc(Br)cc12 (stereo not given in full) | – | – | – | pIC50 (HepG2): ≤ 6.10; IC50 (HCT-116): 1.57 µg/mL; IC50 (MCF7): 2.5 µg/mL |
| O=C1Nc2ccccc2[C@@]12N[C@H](Cc1c[nH]cn1)[C@@H]([N+](=O)[O-])[C@@H]2c1ccc(Cl)cc1 | ≤ 4.52 | – | – | – |
| O=[N+]([O-])c1c(Cl)cc2c(no[n+]2[O-])c1Nc1cccc(O)c1 | – | > 100 | ≤ 4.83 | – |
| O=C(/C=C/c1ccc(Cl)cc1)[C@H]1[C@H](c2ccc(Cl)cc2)C2CSCN2C12C(=O)Nc1c(Br)cc(Br)cc12 (stereo not given in full) | – | – | – | pIC50 (HCT-116): > 5.52 |
| O=C1Nc2ccc(OC(F)(F)F)cc2[C@@]12N[C@H](Cc1c[nH]cn1)[C@@H]([N+](=O)[O-])[C@@H]2c1ccccc1Cl | ≤ 4.52 | – | – | – |
| O=C1Nc2ccc(OC(F)(F)F)cc2[C@@]12N[C@H](Cc1c[nH]c3ccccc13)[C@@H]([N+](=O)[O-])[C@@H]2c1ccc(Br)cc1 | ≤ 4.52 | – | – | – |
| O=C1Nc2ccccc2[C@@]12N[C@H](Cc1c[nH]cn1)[C@@H]([N+](=O)[O-])[C@@H]2c1ccccc1 | 4.37 | – | – | – |
| CN(C)CCc1ccc(Nc2c([N+](=O)[O-])c(Cl)cc3c2no[n+]3[O-])cc1O | – | > 100 | ≤ 4.83 | – |
| COc1ccc(-c2c(O)c3ccccc3oc2=O)cc1 | – | > 100 | ≤ 4.83 | – |
| CCCCCCc1cc2c(cc1O)OCO2 | – | > 100 | 4.83 | – |
| Cc1ccc([C@H]2[C@H]([N+](=O)[O-])[C@@H](Cc3c[nH]cn3)N[C@]23C(=O)Nc2ccc(OC(F)(F)F)cc23)cc1 | ≤ 4.52 | – | – | – |
| COc1ccc([C@H]2[C@H]([N+](=O)[O-])[C@@H](Cc3c[nH]c4ccccc34)N[C@]23C(=O)Nc2ccc(OC(F)(F)F)cc23)cc1 | ≤ 4.52 | – | – | – |
| O=c1oc2ccccc2c(O)c1-c1ccc(Br)cc1 | – | > 100 | ≤ 4.83 | – |
| Oc1cc2c(cc1-c1ccc(Br)cc1)OCO2 | – | > 100 | 4.83 | – |
| Cc1cc(O)c(-c2ccc(Br)cc2)c(=O)o1 | – | > 100 | ≤ 4.83 | – |
| COc1ccc(-c2c(O)cc(C)oc2=O)cc1 | – | > 100 | ≤ 4.83 | – |
| COc1ccc(-c2ccc(Nc3c([N+](=O)[O-])c(Cl)cc4c3no[n+]4[O-])cc2O)cc1 | – | > 100 | ≤ 4.83 | – |

| SMILES | pIC50 (FaDu) | IC50 at 24 h [1] [µM] | pIC50 (M-HeLa) | also measured |
| --- | --- | --- | --- | --- |
| Cc1cc(O)c(-c2ccccc2)c(=O)o1 | – | > 100 | ≤ 4.83 | – |
| O=C1Nc2ccc(OC(F)(F)F)cc2[C@@]12N[C@H](Cc1c[nH]cn1)[C@@H]([N+](=O)[O-])[C@@H]2c1ccccc1 | ≤ 4.52 | – | – | – |
| O=[N+]([O-])c1c(Cl)cc2c(no[n+]2[O-])c1Nc1ccc(C2CCCCC2)c(O)c1 | – | > 100 | ≤ 4.83 | – |
| Oc1cc2c(cc1-c1ccccc1)OCO2 | – | > 100 | 4.83 | – |
| Cc1ccc([C@H]2[C@H]([N+](=O)[O-])[C@@H](Cc3c[nH]cn3)N[C@]23C(=O)Nc2ccccc23)cc1 | ≤ 4.52 | – | – | – |
| O=C1Nc2ccccc2[C@@]12N[C@H](Cc1c[nH]c3ccccc13)[C@@H]([N+](=O)[O-])[C@@H]2c1ccccc1Cl | ≤ 4.52 | – | – | – |
| O=C(/C=C/c1ccco1)[C@H]1[C@H](c2ccco2)C2CSCN2C12C(=O)Nc1c(Br)cc(Br)cc12 (stereo not given in full) | – | – | – | pIC50 (HepG2): ≤ 6.10; IC50 (HCT-116): 1.57 µg/mL; IC50 (MCF7): 2.5 µg/mL |
| Cc1cc(O)cc(=O)o1 | – | > 100 | ≤ 4.83 | – |
| Cc1ccc(S(=O)(=O)N2CCCC2C(=O)Nc2ccc3c(C)cc(=O)oc3c2)cc1 (single isomer, unassigned) | – | – | – | pIC50 (MCF7): 5.97 |
| CN(C)CCc1c(O)c2ccccc2oc1=O | – | > 100 | ≤ 4.83 | – |
| O=c1oc2ccccc2c(O)c1-c1ccc(F)cc1 | – | > 100 | ≤ 4.83 | – |
| O=C1Nc2ccc(OC(F)(F)F)cc2[C@@]12N[C@H](Cc1c[nH]cn1)[C@@H]([N+](=O)[O-])[C@@H]2c1cccc([N+](=O)[O-])c1 | ≤ 4.52 | – | – | – |
| Cc1ccc([C@H]2[C@H]([N+](=O)[O-])[C@@H](Cc3c[nH]c4ccccc34)N[C@]23C(=O)Nc2ccc(OC(F)(F)F)cc23)cc1 | ≤ 4.52 | – | – | – |
| O=C1Nc2ccccc2[C@@]12N[C@H](Cc1c[nH]c3ccccc13)[C@@H]([N+](=O)[O-])[C@@H]2c1ccccc1 | 4.52 | – | – | – |
| CN(C)CCc1cc2c(cc1O)OCO2 | – | > 100 | 4.83 | – |
| O=C1Nc2ccccc2[C@@]12N[C@H](Cc1c[nH]cn1)[C@@H]([N+](=O)[O-])[C@@H]2c1cccc([N+](=O)[O-])c1 | ≤ 4.52 | – | – | – |
| O=C1Nc2ccc(OC(F)(F)F)cc2[C@@]12N[C@H](Cc1c[nH]c3ccccc13)[C@@H]([N+](=O)[O-])[C@@H]2c1ccccc1Cl | ≤ 4.52 | – | – | – |
| COc1ccc(-c2cc3c(cc2O)OCO3)cc1 | – | > 100 | 4.83 | – |
| O=c1oc2ccccc2c(O)c1-c1ccccc1 | – | > 100 | ≤ 4.83 | – |
| O=C1Nc2ccccc2[C@@]12N[C@H](Cc1c[nH]c3ccccc13)[C@@H]([N+](=O)[O-])[C@@H]2c1cccc([N+](=O)[O-])c1 | ≤ 4.52 | – | – | – |
| O=C1Nc2ccccc2[C@@]12N[C@H](Cc1c[nH]c3ccccc13)[C@@H]([N+](=O)[O-])[C@@H]2c1ccc(Cl)cc1 | ≤ 4.52 | – | – | – |
| Cc1cc(O)c(C2CCCCC2)c(=O)o1 | – | > 100 | ≤ 4.83 | – |

| SMILES | pIC50 (FaDu) | IC50 at 24 h [1] [µM] | pIC50 (M-HeLa) | also measured |
| --- | --- | --- | --- | --- |
| CCCCCCc1ccc(Nc2c([N+](=O)[O-])c(Cl)cc3c2no[n+]3[O-])cc1O | – | > 100 | ≤ 4.83 | – |
| O=C1Nc2ccc(OC(F)(F)F)cc2[C@@]12N[C@H](Cc1c[nH]c3ccccc13)[C@@H]([N+](=O)[O-])[C@@H]2c1cccc([N+](=O)[O-])c1 | ≤ 4.52 | – | – | – |
| COc1ccc([C@H]2[C@H]([N+](=O)[O-])[C@@H](Cc3c[nH]cn3)N[C@]23C(=O)Nc2ccc(OC(F)(F)F)cc23)cc1 | ≤ 4.52 | – | – | – |
| Oc1cc2c(cc1-c1ccc(F)cc1)OCO2 | – | > 100 | 4.83 | – |
| Cc1ccc([C@H]2[C@H]([N+](=O)[O-])[C@@H](Cc3c[nH]c4ccccc34)N[C@]23C(=O)Nc2ccccc23)cc1 | ≤ 4.52 | – | – | – |
| O=[N+]([O-])c1c(Cl)cc2c(no[n+]2[O-])c1Nc1ccc(-c2ccc(F)cc2)c(O)c1 | – | > 100 | ≤ 4.83 | – |
| O=C(/C=C/c1cccc(Br)c1)[C@H]1[C@H](c2cccc(Br)c2)C2CSCN2C12C(=O)Nc1c(Br)cc(Br)cc12 (stereo not given in full) | – | – | – | pIC50 (HCT-116): > 5.52 |
| O=[N+]([O-])c1c(Cl)cc2c(no[n+]2[O-])c1Nc1ccc(-c2ccc(Br)cc2)c(O)c1 | – | > 100 | ≤ 4.83 | – |
| O=C1Nc2ccc(OC(F)(F)F)cc2[C@@]12N[C@H](Cc1c[nH]cn1)[C@@H]([N+](=O)[O-])[C@@H]2c1ccc(Br)cc1 | ≤ 4.52 | – | – | – |
| O=C(/C=C/c1ccc(Br)cc1)[C@H]1[C@H](c2ccc(Br)cc2)C2CSCN2C12C(=O)Nc1c(Br)cc(Br)cc12 (stereo not given in full) | – | – | – | pIC50 (HCT-116): 5.66; pIC50 (MCF7): 5.60 |
| O=C1Nc2ccc(OC(F)(F)F)cc2[C@@]12N[C@H](Cc1c[nH]cn1)[C@@H]([N+](=O)[O-])[C@@H]2c1ccc(Cl)cc1 | ≤ 4.52 | – | – | – |
| O=[N+]([O-])c1c(Cl)cc2c(no[n+]2[O-])c1Nc1ccc(-c2ccccc2)c(O)c1 | – | > 100 | ≤ 4.83 | – |
| Cc1cc(O)c(CCN(C)C)c(=O)o1 | – | > 100 | ≤ 4.83 | – |
| Oc1ccc2c(c1)OCO2 | – | > 100 | 4.83 | – |
| O=c1cc(O)c2ccccc2o1 [4-HYDROXYCOUMARINS] | – | > 100 | ≤ 4.83 | – |
| O=c1oc2ccccc2c(O)c1C1CCCCC1 | – | > 100 | ≤ 4.83 | – |
| O=C1Nc2ccccc2[C@@]12N[C@H](Cc1c[nH]cn1)[C@@H]([N+](=O)[O-])[C@@H]2c1ccccc1Cl | ≤ 4.52 | – | – | – |
| Cc1cc(O)c(-c2ccc(F)cc2)c(=O)o1 | – | > 100 | ≤ 4.83 | – |
| O=C1Nc2ccccc2[C@@]12N[C@H](Cc1c[nH]c3ccccc13)[C@@H]([N+](=O)[O-])[C@@H]2c1ccc(Br)cc1 | 4.40 | – | – | – |
| CCCCCCc1c(O)cc(C)oc1=O | – | > 100 | ≤ 4.83 | – |
